# Entries after “also recorded” stand apart in the source; their conditions may differ.
# Experiments:
# [1] = system: murine model of schizophrenia; experiment: PhenoTyper cage behaviour in the PCP mouse model; type: in vivo, mice; conditions: BCP 5 mg/kg PND 43-61
# [2] = Body weight in the neonatal PCP mouse model of schizophrenia
# [3] = system: murine model of schizophrenia; experiment: Elevated Plus Maze test in the PCP mouse model; type: in vivo, mice
# Description: Anxiety as measured by the paucity of time spent on the two, anxiety-provoking, open arms (as opposed to the two enclosed arms) of an “Elevated Plus Maze” was used as a parameter of negative symptoms of schizophrenia (Josselyn and Vaccarino, 1998). The plus maze was elevated 50 cm above the table top. Behavior of each mouse was recorded for 5 min by a video camera and scored using the “EthoVision” software (Noldus Information Technology, Wageningen, The Netherlands), measuring the number of entries as well as the amount of time spent in each arm, open or closed. Increased time spent in the closed arms indicated increased anxiety. Increased time spent in the opened arms indicated anxiolytic behavior (reduced stress).
# [4] = system: murine model of schizophrenia; experiment: Prepulse inhibition (PPI) of the startle reflex in the PCP mouse model; type: in vivo, mice
# Description: In this experimental model, a weak stimulus (74-90 dB tone) inhibited the subsequent response to a strong stimulus (120 dB tone). Reduced prepulse inhibition of the startle reflex (PPI) was taken as an index of the positive symptoms of schizophrenia (Josselyn and Vaccarino, 1998).
# PPI was assessed similarly to the method described by Varty et al. In the employed model, mice were placed in a startle chamber and allowed to acclimate for 5 min. A loudspeaker produced a 65 dB background white noise or the various acoustic pre-pulse stimuli (dB): 74, 78, 82, 86, and 90 (20 ms). A 120 dB (40 ms) stimulus was given first to induce a response to startle. The response of the mouse was transduced and stored by a computer. Each test session lasted for 11 min and consisted of 5 presentations of each of the trial types presented in random order and separated by 15 second intervals. The amount of prepulse inhibition was calculated as % PPI=[1−(startle response for prepulse+pulse)/(startle response for pulse alone)]×100.
# The % PPI indicates of level of disruption of the sensorimotor gating system in schizophrenia but also serves as an indicator of memory function. The % PPI after administration of PCP and treatment of BCP in the PPI test also serve as an index of memory function, further supporting the function of the sensorimotor system.
# [5] = system: murine model of schizophrenia; experiment: Open-field test (ambulation, rearing, grooming) in the PCP mouse model
# Description: Mice were assessed for hyperactivity behavior on postnatal day 16 (FIG. 2). Mice were placed in the center of a transparent glass cube cage 30×40 X31 cm divided into squares of 7.5×7.5 cm. The number of squares and rearing activity were counted for 8 min.
# Mice were assessed for hyperactivity behavior on postnatal day 64-66. Mice were placed in the center of a transparent glass cube cage 30×40 X31 cm divided into squares of 7.5×7.5 cm. The number of squares and rearing activity were counted for 8 min.
# [6] = system: murine model of schizophrenia; experiment: Forced-swimming test in the PCP mouse model; type: in vivo, mice; conditions: PND 83; postnatal PCP 5 mg/kg; oral BCP 10 mg/kg twice a week, PND 43-62
# Description: BCP was diluted in canola oil. BCP (10 mg/kg diluted in canola oil) was administered to adolescent mice (PND 43-62) by gavage twice a week (on Sunday and Wednesday) for 3 weeks, a total of 6 gavages. Control group and PCP-induced group received by gavage the oil vehicle.
# Training was conducted for 6 min a day before the test. Each mouse was placed into a transparent glass cylinder filled with fresh water at 25° C. On the test day, the total duration/frequency of immobility and climbing was counted every 2 minutes for 6 minutes. An increased immobility is an index of learning and habituation, therefore a positive behavioral adaptation with a stressful condition.
# CYP2D6 = CYP2D6 (Homo sapiens, UniProt P10635); experiment: CYP450 enzymatic metabolism in human liver microsomes
# Description: CYP450 dependent activities were determined using a known substrate. […] A known inhibitor, such as quinidine, tested at a single concentration 3.00 μM was included as positive control. Incubation mixture containing human liver microsomes (0.1 mg/mL), substrate (5 μM) and standard inhibitor or test compound were warmed at 37 C for 10 minutes. Reactions were initiated by addition of the NADPH (1 mM) and the mixture was incubated for 20 minutes at 37° C. water bath. The organic solvent in the reaction mixture was DMSO. After incubation, ice cold acetonitrile was added to terminate the reaction. Generation of metabolite from the substrate reactions was determined by LC-MS/MS and assessed based on peak area ratios of analyte/IS. Mean was used to calculate the extent of inhibition (expressed as % of control activity).
# [7] = air exposed, after 5 weeks; cited from earlier work
# [8] = PND 91, females and males, postnatal PCP
# [9] = PND 17, BCP 10 mg/kg 1 h after PCP, ethanol-based vehicle
# [10] = PND 35-37, postnatal BCP 10 mg/kg 1 h after PCP
# [11] = PND 104, postnatal PCP, BCP 5 mg/kg PND 43-61
# [12] = age 13 weeks, postnatal BCP 10 mg/kg 1 h after PCP
# [13] = PND 68, no PCP, BCP 5 mg/kg PND 43-61
# [14] = PND 68, postnatal PCP, BCP 5 mg/kg PND 43-61
# [15] = PND 106, postnatal PCP, BCP 5 mg/kg PND 43-61
# [16] = age 8 weeks, postnatal BCP 10 mg/kg 1 h after PCP
# Sequence of CYP2D6 (P10635 whole entry): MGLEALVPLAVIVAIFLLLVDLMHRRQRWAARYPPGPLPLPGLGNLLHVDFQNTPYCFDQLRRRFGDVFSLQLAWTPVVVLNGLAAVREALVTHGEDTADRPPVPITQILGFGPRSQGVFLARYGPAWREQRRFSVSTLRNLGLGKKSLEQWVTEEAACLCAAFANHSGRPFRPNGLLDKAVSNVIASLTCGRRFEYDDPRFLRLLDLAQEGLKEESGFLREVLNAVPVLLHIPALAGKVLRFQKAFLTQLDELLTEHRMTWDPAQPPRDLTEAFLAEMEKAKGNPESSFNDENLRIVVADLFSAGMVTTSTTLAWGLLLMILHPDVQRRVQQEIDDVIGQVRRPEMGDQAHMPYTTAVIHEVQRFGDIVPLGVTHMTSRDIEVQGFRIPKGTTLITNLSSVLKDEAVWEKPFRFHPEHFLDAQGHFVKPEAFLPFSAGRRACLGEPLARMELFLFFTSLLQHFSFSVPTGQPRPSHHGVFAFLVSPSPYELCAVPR
substance,measurement,setting,value
"trans-(1R,9S)-8-methylene-4,11,11trimethylbicyclo[7.2.0]undec-4-ene [BCP]",frequency of entries to the wheel,[1]; [8],reversed the effects of PCP on the frequency of entries to the wheel in the Phenotyper cage both in females and males
same,time spent in the Hidden Zone,[1]; [8],reversed the effects of PCP on the time spend in the Hidden Zone of PhenoTyper cage in females and males; also recorded: reversed the effects of PCP on the time spent in the hidden zone
same,time spent at the drinking zone,"[1]; PND 91, compared with PCP-treated group",appeared to reduce the time spend at the drinking zone
same,"frequency of entries to the Hidden Zone, males","[1]; PND 91, postnatal PCP",reversed the effect of PCP in males
same,time spent in the food zone,"[1]; PND 91, postnatal PCP",did not affect the time spend in the food zone
same,frequency of entries to the Wheel Zone,"[1]; PND 105, postnatal PCP",appeared to reduce the effect of PCP on the frequency of entries to the Wheel Zone
same,frequency of entries to the hidden zone,"[1]; PND 105, postnatal PCP",reversed the effects of PCP on the frequency of entries to the hidden zone; also recorded: reversed the effect of PCP on frequency of entries to hidden zone
same,time spent at the hidden zone,"[1]; PND 105, postnatal PCP",reversed the effects of PCP on the time spend at the hidden zone; also recorded: reversed the effect of PCP on time spent at the hidden zone
same,time spent in the wheel zone,"[1]; PND 105, postnatal PCP",showed a trend to reverse the effect of PCP on the time spend in the wheel; also recorded: not the time spent in the wheel zone
same,body weight at PND 17,"[2]; BCP 10 mg/kg 1 h after PCP, ethanol-based vehicle, PCP+BCP vs PCP",no significant difference between groups treated with PCP with or without BCP
same,body weight,"[2]; BCP 10 mg/kg 1 h after PCP, postnatal, DMSO-based vehicle",completely reversed the effect of PCP on body weight
same,body weight,"[2]; BCP 10 mg/kg injected 1 h after each PCP 5 mg/kg dose, PND 3-16, Cremophor EL:ethanol:saline vehicle, weight PND 3-17",significantly reversed the inhibitory effect of PCP on body weight; also recorded: reversed the reduction in body weight during the first week of life; also recorded: did not restore the weight completely
same,"effect on PCP-induced reduction of body weight, males",[2]; [9],appeared to be more prominent
same,"body weight, females",[2]; [10],significantly reversed the effect of PCP on female body weight
same,"body weight, males",[2]; [10],no significant difference in male body weight between the groups
same,body weight,[2]; [11],"did not increase body weight in females and males, rather reduced body weight of PCP+BCP treated group"
same,body weight of adolescent mice,"[2]; postnatal PCP, BCP 5 mg/kg injected twice a week PND 43-61 (DMSO:Cremophor EL:saline)",did not affect body weight of adolescent mice
same,"body weight, male mice","[2]; postnatal day 83, oral BCP 10 mg/kg twice a week, PND 43-62",did not affect body weight of male mice at postnatal day 83; also recorded: did not affect their body weight
same,plus maze open/close or open/(close+open) duration and frequency,"[3]; PND 64, postnatal PCP, BCP 5 mg/kg PND 43-61",no effect at age 64; also recorded: did not reverse the effects of PCP in plus maze test
same,behavior in the open arm of the Elevated Plus Maze,"[3]; PND 110, postnatal PCP, BCP 5 mg/kg PND 43-61",significantly reversed the effects of PCP on behavior in the open arm of the Elevated Plus Maze
same,time spent in closed arm or open arm,"[3]; age 13 weeks, females and males, postnatal BCP 10 mg/kg 1 h after PCP",no significant change in the time spent in the closed arm or open arm
same,"time spent in distal end of the opened arm, females",[3]; [12],reversed this effect
same,"time spent in distal end of the opened arm, males",[3]; [12],reversed this effect
same,behavior in the close arm of the Elevated Plus Maze,"[3]; age 64 days, postnatal PCP, BCP 5 mg/kg PND 43-61",significantly reversed the effects of PCP on behavior in the close arm of the Elevated Plus Maze
same,pre-pulse inhibition in saline-treated mice,[4]; [13],no substantial effect on saline-treated mice
same,response to pre-pulse tones in saline-treated mice,[4]; [13],no effect on saline-treated mice
same,response to pre-pulse tones,[4]; [14],significantly reversed the effect of PCP on response to pre-pulse tones; also recorded: reversed the effect of PCP on the response to tone
same,startle response at the end of the PPI test,[4]; [14],did not affect the response to startle at the end of the PPI test
same,"startle response, females",[4]; [14],significantly reversed the effect of PCP on startle response in females
same,"startle response, males",[4]; [14],no difference in the response to the startle stimuli between groups
same,pre-pulse inhibition (% PPI),"[4]; PND 68, postnatal PCP, BCP 5 mg/kg injected twice a week PND 43-61",significantly reversed the effect of PCP on pre-pulse inhibition; also recorded: reversed the effect of PCP on PPI
same,% pre-pulse inhibition (PPI),[4]; [15],reversed the effect of PCP on the % pre-pulse inhibition (PPI); also recorded: reversed the effect of PCP on attention at PND106 (PPI test)
same,response to the startle stimuli (120 dB),[4]; [15],no difference in the response to the startle stimuli (120 dB) between groups
same,response to tones,[4]; [15],reversed the effect of PCP on the response to tones
same,response to startle stimuli,"[4]; age 8 weeks, males and females, postnatal BCP 10 mg/kg 1 h after PCP",not significantly different between groups
same,"% prepulse inhibition, females",[4]; [16],No significant difference
same,"% prepulse inhibition, males",[4]; [16],reversed this effect; also recorded: significantly reversed the effect of PCP on the sensorimotor-gate in males
same,open-field rearing and exploration,"[5]; PND 17, male mice, BCP 10 mg/kg 1 h after each PCP 5 mg/kg injection (Cremophor EL:DMSO:saline)",reversed the effects of PCP on rearing and exploration
same,open-field ambulation and rearing,"[5]; PND 17, males, BCP 10 mg/kg 1 h after PCP, DMSO-based carrier",completely reversed the effects of PCP on ambulation
same,"open-field ambulation and rearing, females",[5]; [9],reversed a proportion of the effects of PCP on ambulation and rearing behavior of female mice
same,"open-field locomotor activity, males",[5]; [9],appeared to be less sensitive to the treatment of PCP or PCP+BCP
same,open-field rearing and exploration,[5]; [9],reversed the effects of PCP on rearing and exploration
same,"open-field locomotor activity (ambulation), males",[5]; [10],reduced locomotor activity; also recorded: significantly reversed the effect of PCP in males
same,"open-field rearing and exploration, females",[5]; [10],no differences in rearing and exploration behaviors were seen between the different groups
same,"open-field rearing, males",[5]; [10],significantly reduced rearing behavior as compared to vehicle and PCP-treated groups
same,open-field rearing,"[5]; PND 63, females and males, postnatal PCP, BCP 5 mg/kg injected twice a week PND 43-61",reversed the effect of PCP on rearing in both females and males
same,open-field ambulation,"[5]; PND 63, male and female, postnatal PCP, BCP 5 mg/kg injected twice a week PND 43-61",significantly reversed the effect of postnatal treatment of PCP on ambulation in male and female mice at PND 63
same,open-field exploration compared with saline-treated mice,"[5]; PND 63, BCP 5 mg/kg injected twice a week PND 43-61",significantly inhibited the exploration of mice compared with saline-treated mice
same,"open-field exploratory behavior, females","[5]; PND 104 (last BCP treatment PND 61), postnatal PCP, BCP 5 mg/kg PND 43-61",relapse in exploratory behavior was evident
same,"self-grooming (total, without stimuli)","[5]; PND 104, females or males, postnatal PCP, BCP 5 mg/kg PND 43-61",did not reverse the effect of PCP on self-grooming; also recorded: did not reverse the effect of PCT on grooming at PND104
same,"open-field rearing (and exploration), males",[5]; [11],still significantly higher than that of PCP-treated mice with no BCP treatment; also recorded: improved exploration and rearing behaviors of male PCP treated mice at PND 104
same,"activity in the open field test, female mice","[5]; postnatal PCP 5 mg/kg, BCP 10 mg/kg in canola oil by gavage twice a week, PND 43-62",reversed the effect of 5 mg/kg PCP on activity of female mice in the open field test
same,"duration of immobility in the forced swim test, male mice",[6],reversed the effect of 5 mg/kg PCP on the duration of immobility of male mice in the forced swim test; also recorded: reversed the effect of PCP on mice in the open field test (29A) and in the forced swim test
same,risperidone-induced inhibition of CYP2D6 in the presence of BCP,"CYP2D6; BCP combined with risperidone at a fixed concentration equivalent to IC50, human liver microsomes",significantly reduced the risperidone-induced inhibition of CYP2D6; also recorded: blocked the effect of risperidone and restored the activity of CYP2D6 enzyme
same,inhibitory effect on CYP2D6,CYP2D6; human liver microsomes,0-20 % inhibition
same,inhibition of CYP2D6 enzymatic activity,"CYP2D6; human liver microsomes 0.1 mg/mL, 20 min, 37 C",slightly inhibited CYP2D6
same,original compound consumed by autoxidation,[7],~50%
